Reference: patent publication US6914045B2, “Glycopeptide antibiotics” (Wyeth Holdings Corporation, priority 2001, dated 2005)
≈ marks a conversion by molar mass, not a printed value.

Key:
Assay in all cases: in vitro antibacterial evaluation, MIC by broth dilution
Type in all cases: cell-based
Escherichia coli = settings: 18 hours at 35° C., strain ATCC 25922
Method in brief: (§1)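 Following National Committee for Clinical Laboratory Standards recommendations (M7-A2), susceptibility was measured by dilution in Muller-Hinton II […]. Bacteria were seeded at 5×10^5 CFU/mL against compound concentrations from 64 down to 0.06 μg/mL.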

Streptococcus sp. = settings: broth dilution, 18 hours at 35° C.
Method in brief: as §1

Enterococcus sp. = settings: broth dilution, 18 hours at 35° C.
Method in brief: as §1

Staphylococcus sp. = settings: broth dilution, 18 hours at 35° C.
Method in brief: as §1

CC(c1ccccc1)C1NC(=O)CNC(=O)C(CO)NC(=O)C(C(O)C2CNC(=N)N2C2OC(CO)C(O)C(O)C2O)NC(=O)C(C(O)C2CNC(=N)N2)NC(=O)C(Cc2ccc(OC3OC(COC(=O)OCc4ccccc4)C(OC4OC(CO)C(O)C(O)C4O)C(O)C3O)cc2)NC1=O (stereo not drawn) [Example 101, Cyclo[glycyl-β-methylphenylalanyl-O-[4-O-hexopyranosyl-6-O-[(phenylmethoxy)carbonyl]-hexopyranosyl]tyrosyl-3-(2-iminoimidazolidin-4-yl)seryl-3-(3-hexopyranosyl-2-iminoimidazolidin-4-yl)serylseryl]]
MIC Escherichia coli (ATCC 25922) (Escherichia coli): >64 µg/mL
MIC Streptococcus agalactiae (GC 4564) (Streptococcus sp.; Streptococcus agalactiae (GC 4564)): 2 µg/mL (≈ 1.4 µM)
MIC Streptococcus pneumoniae (GC 4565) (Streptococcus sp.; Streptococcus pneumoniae (GC 4565)): <0.5 µg/mL
MIC Streptococcus pyogenes (ID-3187) (Streptococcus sp.; Streptococcus pyogenes (ID-3187)): 2 µg/mL (≈ 1.4 µM)
MIC Streptococcus agalactiae (GC 4564) (Streptococcus sp.; strain GC 4564): 2 µg/mL (≈ 1.4 µM)
MIC Streptococcus pneumoniae (GC 4565) (Streptococcus sp.; strain GC 4565): <0.5 µg/mL
MIC Streptococcus pyogenes (ID-3187) (Streptococcus sp.; strain ID-3187): 2 µg/mL (≈ 1.4 µM)
MIC Enterococcus avium (GC 4558) (Enterococcus sp.; Enterococcus avium (GC 4558)): 32 µg/mL (≈ 22.4 µM)
MIC Enterococcus faecalis (ATCC 29212) (Enterococcus sp.; Enterococcus faecalis (ATCC 29212)): 32 µg/mL (≈ 22.4 µM)
MIC Enterococcus faecalis (GC 2242) (Enterococcus sp.; Enterococcus faecalis (GC 2242)): 16 µg/mL (≈ 11.2 µM)
MIC Enterococcus faecalis (GC 4552) (Enterococcus sp.; Enterococcus faecalis (GC 4552)): 64 µg/mL (≈ 44.8 µM)
MIC Enterococcus faecalis (GC 4553) (Enterococcus sp.; Enterococcus faecalis (GC 4553)): 32 µg/mL (≈ 22.4 µM)
MIC Enterococcus faecalis (GC 4554) (Enterococcus sp.; Enterococcus faecalis (GC 4554)): 64 µg/mL (≈ 44.8 µM)
MIC Enterococcus faecium (GC 2243) (Enterococcus sp.; Enterococcus faecium (GC 2243)): 32 µg/mL (≈ 22.4 µM)
MIC Enterococcus faecium (GC 4556) (Enterococcus sp.; Enterococcus faecium (GC 4556)): 32 µg/mL (≈ 22.4 µM)
MIC Enterococcus faecium (GC 4557) (Enterococcus sp.; Enterococcus faecium (GC 4557)): 2 µg/mL (≈ 1.4 µM)
MIC Enterococcus faecalis (ATCC 29212) (Enterococcus sp.; strain ATCC 29212): 32 µg/mL (≈ 22.4 µM)
MIC Enterococcus faecalis (GC 2242) (Enterococcus sp.; strain GC 2242): 16 µg/mL (≈ 11.2 µM)
MIC Enterococcus faecium (GC 2243) (Enterococcus sp.; strain GC 2243): 32 µg/mL (≈ 22.4 µM)
MIC Enterococcus faecalis (GC 4552) (Enterococcus sp.; strain GC 4552): 64 µg/mL (≈ 44.8 µM)
MIC Enterococcus faecalis (GC 4553) (Enterococcus sp.; strain GC 4553): 32 µg/mL (≈ 22.4 µM)
MIC Enterococcus faecalis (GC 4554) (Enterococcus sp.; strain GC 4554): 64 µg/mL (≈ 44.8 µM)
MIC Enterococcus faecium (GC 4556) (Enterococcus sp.; strain GC 4556): 32 µg/mL (≈ 22.4 µM)
MIC Enterococcus faecium (GC 4557) (Enterococcus sp.; strain GC 4557): 2 µg/mL (≈ 1.4 µM)
MIC Enterococcus avium (GC 4558) (Enterococcus sp.; strain GC 4558): 32 µg/mL (≈ 22.4 µM)
MIC Coagulase Negative Staphylococcus (GC 4547) (Staphylococcus sp.): 2 µg/mL (≈ 1.4 µM)
MIC Coagulase Negative Staphylococcus (GC 4548) (Staphylococcus sp.): 2 µg/mL (≈ 1.4 µM)
MIC Coagulase Negative Staphylococcus (GC 4549) (Staphylococcus sp.): 1 µg/mL (≈ 0.7 µM)
MIC Coagulase Negative Staphylococcus (GC 4551) (Staphylococcus sp.): 8 µg/mL (≈ 5.6 µM)
MIC Coagulase Negative Staphylococcus (ID-3941) (Staphylococcus sp.): 1 µg/mL (≈ 0.7 µM)
MIC Staphylococcus aureus (ATCC 29213) (Staphylococcus sp.): 4 µg/mL (≈ 2.8 µM)
MIC Staphylococcus aureus (GC 1131) (Staphylococcus sp.): 4 µg/mL (≈ 2.8 µM)
MIC Staphylococcus aureus (GC 4541) (Staphylococcus sp.): 4 µg/mL (≈ 2.8 µM)
MIC Staphylococcus aureus (GC 4542) (Staphylococcus sp.): 8 µg/mL (≈ 5.6 µM)
MIC Staphylococcus aureus (GC 4544) (Staphylococcus sp.): 8 µg/mL (≈ 5.6 µM)
MIC Staphylococcus aureus (GC 4545) (Staphylococcus sp.): 4 µg/mL (≈ 2.8 µM)
MIC Staphylococcus aureus-SMITH (GC 4543) (Staphylococcus sp.): 4 µg/mL (≈ 2.8 µM)
MIC Staphylococcus haemolyticus (GC 4546) (Staphylococcus sp.): 4 µg/mL (≈ 2.8 µM)
MIC Staphylococcus haemolyticus (GC 4546) (Staphylococcus sp.; strain GC 4546): 4 µg/mL (≈ 2.8 µM)
MIC Coagulase Negative Staphylococcus (GC 4547) (Staphylococcus sp.; strain GC 4547): 2 µg/mL (≈ 1.4 µM)
MIC Coagulase Negative Staphylococcus (GC 4548) (Staphylococcus sp.; strain GC 4548): 2 µg/mL (≈ 1.4 µM)
MIC Coagulase Negative Staphylococcus (GC 4549) (Staphylococcus sp.; strain GC 4549): 1 µg/mL (≈ 0.7 µM)
MIC Coagulase Negative Staphylococcus (GC 4551) (Staphylococcus sp.; strain GC 4551): 8 µg/mL (≈ 5.6 µM)
MIC Coagulase Negative Staphylococcus (ID-3941) (Staphylococcus sp.; strain ID-3941): 1 µg/mL (≈ 0.7 µM)
MIC Staphylococcus aureus-SMITH (GC 4543) (Staphylococcus sp.; strain SMITH GC 4543): 4 µg/mL (≈ 2.8 µM)
MIC Staphylococcus aureus (ATCC 29213) (Staphylococcus sp.; strain ATCC 29213): 4 µg/mL (≈ 2.8 µM)
MIC Staphylococcus aureus (GC 1131) (Staphylococcus sp.; strain GC 1131): 4 µg/mL (≈ 2.8 µM)
MIC Staphylococcus aureus (GC 4541) (Staphylococcus sp.; strain GC 4541): 4 µg/mL (≈ 2.8 µM)
MIC Staphylococcus aureus (GC 4542) (Staphylococcus sp.; strain GC 4542): 8 µg/mL (≈ 5.6 µM)
MIC Staphylococcus aureus (GC 4544) (Staphylococcus sp.; strain GC 4544): 8 µg/mL (≈ 5.6 µM)
MIC Staphylococcus aureus (GC 4545) (Staphylococcus sp.; strain GC 4545): 4 µg/mL (≈ 2.8 µM)
